# Experimental data as given in ChEMBL document CHEMBL3112402, “Chemical constituents of Plectranthus amboinicus and the synthetic analogs possessing anti-inflammatory activity” (Bioorg Med Chem, 2014).
# Target: Transcription factor Jun (Homo sapiens, UniProt P05412)
# Experiment: Inhibition of transcription factor AP-1 binding to oligonucleotide containing TPA-responsive element in TPA-activated human HeLa cells after 1 hr by ELISA
# Assay type: cell-based
# Details: not given
# Transcription factor Jun, sequence (P05412 whole entry): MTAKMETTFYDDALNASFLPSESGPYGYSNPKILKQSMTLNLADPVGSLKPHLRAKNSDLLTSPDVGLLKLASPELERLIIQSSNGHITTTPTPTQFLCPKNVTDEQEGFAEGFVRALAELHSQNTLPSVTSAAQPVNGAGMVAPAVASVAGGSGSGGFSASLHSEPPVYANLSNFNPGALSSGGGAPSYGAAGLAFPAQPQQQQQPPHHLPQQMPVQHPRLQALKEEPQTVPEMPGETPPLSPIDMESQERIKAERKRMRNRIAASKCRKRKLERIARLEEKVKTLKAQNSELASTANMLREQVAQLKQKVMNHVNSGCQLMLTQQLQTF
row,IC50 [µM],Compound
1,11.9,O=C(O)/C(=C\c1ccc(O)c(O)c1)C(c1ccc(O)c(O)c1)C(O)C(=O)O (stereo not drawn)
2,1.3,O=C(O[C@H](Cc1ccc(O)c(O)c1)C(=O)O)[C@H]1[C@H](C(=O)O[C@H](Cc2ccc(O)c(O)c2)C(=O)O)[C@H](c2ccc(O)c(O)c2)[C@H]1c1ccc(O)c(O)c1
3,1.6,O=C(O[C@H](Cc1ccc(O)c(O)c1)C(=O)O)C1=Cc2ccc(O)c(O)c2C(C(=O)O[C@H](Cc2ccc(O)c(O)c2)C(=O)O)C1c1ccc(O)c(O)c1 (stereo partly drawn)
4,16.2,O=C(/C=C/c1ccc(O)c(O)c1)O[C@H](Cc1ccc(O)c(O)c1)C(=O)O [ROSMARINIC ACID]

# Test system: not listed separately
# Experiment: Antiinflammatory activity in PMA-activated human U937 cells assessed as inhibition of LPS-induced TNF-alpha expression preincubated for 2 hrs followed by LPS challenge measured after 6 hrs by ELISA
# Assay type: functional, cell-based
# Details: U-937
row,IC50 [µM],Compound
1,23.7,C/C=C1\C(=O)C=C(C(C)C)C1=O
2,10.1,CC1=CC(=O)/C(=C\C(C)C)C1=O
3,5.1,CC(C)C=C1C(=O)C=CC1=O

row,Compound,IC50 [µM]
1,CC1=CC(=O)C(C(C)C)=CC1=O [THYMOQUINONE],102
